Consider four substances from publication PMC3176149, “Application of Celluspots peptide arrays for the analysis of the binding specificity of epigenetic reading domains to modified histone tails” (BMC Biochemistry, 2011).

The subject of assay [1] is 53BP1 tandem Tudor domain (residues 1490-1608). As to the kind of experiment: Binding of GST-fused 53BP1 tandem Tudor domain to modified histone peptides on Celluspots peptide arrays. More on the design: species or system human. The settings on record: 53BP1 tandem Tudor GST fusion 1 μM, room temperature, 2 hours, interaction buffer pH 7.5, ECL, tested at least two times. The method, then: (§1) In the present study, the binding specificities of seven known reading domains were analyzed using Celluspots peptide arrays comprising 384 peptides from 8 different regions of the N-terminal histone tails, viz. H3 1-19, 7-26, 16-35 and 26-45, H4 1-19 and 11-30, H2A 1-19 and H2B 1-19. The arrays are commercially available from Active Motif and feature 59 post-translational modifications (most of them identified, some of them hypothetical) in many different combinations (Additional file 1). Binding of the GST fused reading domain proteins to peptide arrays was visualized using an anti-GST antibody, followed by a secondary anti-goat-HRP antibody and ECL detection system. […] In case of weak signals, the experiment was repeated with higher protein concentration. In case of an overexposed image, the protein concentration was reduced. For quality control, each glass slide contains two identical copies of the array. […] The sequences encoding human HP1ß full length (residues 1-185), the Chromo domain of human MPP8 (residues 58-112), the double Tudor domain of human JMJ[…] (residues 856-1047), the tandem Tudor domain of human 53BP1 (residues 1490-1608), the PHD finger of human Rag2 (residues 311-520) and the second Bromo domain of human BRD2 (residues 348-455) were amplified from cDNA derived from HEK293 cells and cloned as GST fusion proteins into the pGEX-6P-2 vector (GE Healthcare).

Assay [2] has as its system 53BP1 tandem Tudor domain. The settings on record: ref [14],[15]; cited from earlier work. An excerpt:
(§2) The Tudor domain folds into a ß-sandwich flanked by one α-helix.

In assay [3] the test system is JMJD2A double Tudor domain (residues 856-1047). As to the kind of experiment: Binding of GST-fused JMJD2A double Tudor domain to modified histone peptides on Celluspots peptide arrays. Further details: species or system human. The settings on record: JMJD2A double Tudor GST fusion 10 nM, room temperature, 2 hours, interaction buffer pH 7.5, ECL, tested at least two times. The protocol: as §1

Assay [4] deals with JMJD2A double Tudor domain. To be noted: ref [14],[17],[18]; cited from earlier work.
Description: as §2

In assay [5] the test system is Dnmt3a PWWP domain (residues 279-420). As to the kind of experiment: Binding of GST-fused Dnmt3a PWWP domain to modified histone peptides on Celluspots peptide arrays. More on the design: species or system murine. To be noted: Dnmt3a PWWP GST fusion 50 nM, room temperature, 2 hours, interaction buffer pH 7.5, ECL, tested at least two times. The method, then: In the present study, the binding specificities of seven known reading domains were analyzed using Celluspots peptide arrays comprising 384 peptides from 8 different regions of the N-terminal histone tails, viz. H3 1-19, 7-26, 16-35 and 26-45, H4 1-19 and 11-30, H2A 1-19 and H2B 1-19. The arrays are commercially available from Active Motif and feature 59 post-translational modifications (most of them identified, some of them hypothetical) in many different combinations (Additional file 1). Binding of the GST fused reading domain proteins to peptide arrays was visualized using an anti-GST antibody, followed by a secondary anti-goat-HRP antibody and ECL detection system. The domains were selected to represent the different folds of reading domains and show a wide range of specificities. […] Each reading domain was tested at least two times on the peptide arrays to ensure that the results are reliable. […] The binding intensities for each tested reading domain were analyzed with the Array Analyze program, which calculates the average of the binding intensities to corresponding peptide spots in both copies of the array and prepares a graphical output - one scatter plot illustrating the binding intensities observed at corresponding spots in both copies of the array and a bar diagram showing the distribution of deviations of the binding intensities to the corresponding spots. […]

The next assay deals with Dnmt3a PWWP domain. The settings on record: SPOT arrays and follow-up experiments; ref [19]; cited from earlier work. The method, then:
These binding modules are about 50 amino acids long and contain two binding sites for zinc ions. The PHD finger of Rag2, an essential component of the Rag1/2 V(D)J recombinase, which mediates antigen-receptor gene assembly, interact ... || Another reading domain which was tested on the Celluspots peptide arrays is the PWWP domain of Dnmt3a. […] Since there is only one H3K36me3-modified peptide spot, the effect of enhancing or inhibiting secondary modifications could not be studied in this case. […] Since peptide arrays are screening tools, unexpected or novel results need to be confirmed by equilibrium peptide binding experiments using purified peptides. In our experience, such studies often confirmed results from peptide arrays. For example in the case of the Dnmt3a PWWP domain, binding ...

Entries after “also recorded” stand apart in the source; their conditions may differ.

For “H4K20me1: H4K20me1 modified histone tail peptide on Celluspots array”, in assay [1], the “binding to modified histone tail peptides (array signal)” value (“binding … (array signal)” below) is on record as “not observed on the peptide array”. Further, the “interaction with 53BP1 tandem Tudor domain (literature)” value in assay [2] is reported as “reported to interact”.

On to “H4K20me2: H4K20me2 modified histone tail peptide on Celluspots array”, for which, in assay [3], the “binding … (array signal)” value was “next best bound modification on the peptide array”. Further, the “interaction with 53BP1 tandem Tudor domain (literature)” value in assay [2] is listed as “reported to interact; also recorded: shown to interact”. Besides, the “binding to JMJD2A double Tudor domain (literature)” value in assay [4] is on record as “interact preferentially; also recorded: reported to bind”.

Turning to “H3K36me3: H3K36me3-modified peptide spot on Celluspots array (only one)”, the “binding … (array signal)” value in assay [5] was “specifically bound”. In the assay on Dnmt3a PWWP domain, the “interaction with Dnmt3a PWWP domain (literature)” value is “specific interaction; also recorded: could be verified by peptide binding, pull-down of native nucleosomes and functional DNA methylation experiments; also recorded: shown to read H3K36me3”.

For “H3K36me2: H3K36me2 modified histone tail peptide on Celluspots array”, the “binding … (array signal)” value in assay [5] is given as “weaker binding signal in comparison to H3K36me3”.
